Experimental data published in the NIST ThermoML archive (doi:10.1021/je060271a).
Numbers after ± are expanded uncertainties.

Settings: 323.14 K, Liquid, Vibrating tube method

CCCC(=O)OCC(COC(=O)CCC)(COC(=O)CCC)COC(=O)CCC [pentaerythritol tetrabutyrate]
Settings	mass density [kg/m3]
17664 kPa	1037.3 ± 1.2
17706 kPa	1037.2 ± 1.3
17742 kPa	1037.4 ± 1.2
17779 kPa	1037.3 ± 1.2
17823 kPa	1037.3 ± 1.2
17860 kPa	1037.3 ± 1.2
17896 kPa	1037.3 ± 1.2
17933 kPa	1037.5 ± 1.2
17977 kPa	1037.4 ± 1.2
18014 kPa	1037.5 ± 1.2
18060 kPa	1037.4 ± 1.2
18099 kPa	1037.5 ± 1.2
18137 kPa	1037.5 ± 1.2
18184 kPa	1037.6 ± 1.2
18224 kPa	1037.5 ± 1.2
18264 kPa	1037.7 ± 1.2
18304 kPa	1037.6 ± 1.2
18346 kPa	1037.8 ± 1.2
18376 kPa	1037.8 ± 1.2
18470 kPa	1037.7 ± 1.2
18504 kPa	1037.6 ± 1.2
18534 kPa	1037.7 ± 1.2
18564 kPa	1037.8 ± 1.2
18600 kPa	1037.9 ± 1.2
18629 kPa	1037.8 ± 1.3
18660 kPa	1037.9 ± 1.2
18695 kPa	1037.8 ± 1.2
18793 kPa	1037.9 ± 1.2
18818 kPa	1038 ± 1.2
18855 kPa	1038 ± 1.2
18891 kPa	1038 ± 1.3
18922 kPa	1037.9 ± 1.2
18954 kPa	1038 ± 1.2
18986 kPa	1038.2 ± 1.3
19023 kPa	1038 ± 1.3
19055 kPa	1038 ± 1.3
19093 kPa	1038.2 ± 1.2
19125 kPa	1038.1 ± 1.3
19157 kPa	1038.1 ± 1.3
19219 kPa	1038.2 ± 1.3
19363 kPa	1038.3 ± 1.3
19716 kPa	1038.6 ± 1.3
19756 kPa	1038.7 ± 1.3
19790 kPa	1038.6 ± 1.3
19824 kPa	1038.7 ± 1.3
19866 kPa	1038.6 ± 1.3
19901 kPa	1038.7 ± 1.3
19935 kPa	1038.8 ± 1.3
20012 kPa	1038.8 ± 1.3
20274 kPa	1038.9 ± 1.3
20318 kPa	1038.9 ± 1.3
20356 kPa	1038.9 ± 1.3
20392 kPa	1038.9 ± 1.3
20429 kPa	1039.1 ± 1.3
20472 kPa	1039.1 ± 1.3
20510 kPa	1039 ± 1.3
20629 kPa	1039.2 ± 1.3
20667 kPa	1039.1 ± 1.3
20706 kPa	1039.2 ± 1.3
20751 kPa	1039.2 ± 1.3
20789 kPa	1039.2 ± 1.3
20828 kPa	1039.3 ± 1.3
20869 kPa	1039.3 ± 1.3
20908 kPa	1039.4 ± 1.3
20954 kPa	1039.3 ± 1.3
20992 kPa	1039.4 ± 1.3
21039 kPa	1039.3 ± 1.3
21079 kPa	1039.4 ± 1.3
21117 kPa	1039.6 ± 1.3
21156 kPa	1039.4 ± 1.3
21204 kPa	1039.5 ± 1.3
21243 kPa	1039.5 ± 1.3
21283 kPa	1039.5 ± 1.3
21333 kPa	1039.5 ± 1.3
21374 kPa	1039.6 ± 1.3
21416 kPa	1039.6 ± 1.3
21465 kPa	1039.7 ± 1.3
21508 kPa	1039.7 ± 1.3
21593 kPa	1039.7 ± 1.3
22639 kPa	1040.4 ± 1.3
22677 kPa	1040.4 ± 1.3
22723 kPa	1040.4 ± 1.3
22761 kPa	1040.5 ± 1.3
22807 kPa	1040.5 ± 1.3
22845 kPa	1040.5 ± 1.3
22884 kPa	1040.5 ± 1.3
22932 kPa	1040.5 ± 1.3
22972 kPa	1040.6 ± 1.3
23010 kPa	1040.7 ± 1.3
23051 kPa	1040.6 ± 1.3
23098 kPa	1040.7 ± 1.3
23137 kPa	1040.7 ± 1.3
23185 kPa	1040.7 ± 1.3
23224 kPa	1040.8 ± 1.3
23265 kPa	1040.8 ± 1.3
23314 kPa	1040.8 ± 1.3
23354 kPa	1040.9 ± 1.3
23396 kPa	1040.8 ± 1.3
23445 kPa	1040.8 ± 1.3
23487 kPa	1041 ± 1.3
23528 kPa	1040.9 ± 1.3
23578 kPa	1041 ± 1.3
23620 kPa	1041 ± 1.3
23662 kPa	1041.1 ± 1.3
23705 kPa	1041 ± 1.3
23756 kPa	1041.1 ± 1.3
23800 kPa	1041.1 ± 1.3
24059 kPa	1041.3 ± 1.3
24170 kPa	1041.4 ± 1.3
24213 kPa	1041.4 ± 1.3
24248 kPa	1041.5 ± 1.3
24441 kPa	1041.6 ± 1.3
24478 kPa	1041.6 ± 1.3
24516 kPa	1041.6 ± 1.3
24554 kPa	1041.6 ± 1.3
24598 kPa	1041.7 ± 1.3
24634 kPa	1041.6 ± 1.3
24671 kPa	1041.6 ± 1.3
24708 kPa	1041.8 ± 1.3
24752 kPa	1041.8 ± 1.3
24955 kPa	1041.8 ± 1.3
24993 kPa	1041.9 ± 1.3
25031 kPa	1041.9 ± 1.3
25070 kPa	1041.9 ± 1.3
25108 kPa	1041.9 ± 1.3
25155 kPa	1042.1 ± 1.3
25193 kPa	1042 ± 1.3
25232 kPa	1042 ± 1.3
25278 kPa	1042 ± 1.3
25825 kPa	1042.4 ± 1.3
25865 kPa	1042.5 ± 1.3
25913 kPa	1042.5 ± 1.3
25954 kPa	1042.5 ± 1.3
25996 kPa	1042.5 ± 1.3
26045 kPa	1042.6 ± 1.3
26086 kPa	1042.6 ± 1.3
26129 kPa	1042.6 ± 1.3
26170 kPa	1042.7 ± 1.3
26220 kPa	1042.7 ± 1.3
26262 kPa	1042.7 ± 1.3
26305 kPa	1042.7 ± 1.3
26355 kPa	1042.7 ± 1.3
26397 kPa	1042.8 ± 1.3
26448 kPa	1042.8 ± 1.3
26490 kPa	1042.8 ± 1.3
26533 kPa	1042.9 ± 1.3
